Results taken from ChEMBL document CHEMBL1201862, “PubChem BioAssay data set” (2004).
Activity calls are given as the source filed them.

Tests used:
Estrogen receptor beta [1] = target: T1, Estrogen receptor beta (Homo sapiens, UniProt Q92731);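 further: recombinant ER-beta bound to coactivator SRC1 peptide in presence of estradiol agonist; inhibitors block coactivator peptide binding and lower the FRET signal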
[2] = target: T2, Carboxy-terminal domain RNA polymerase II polypeptide A small phosphatase 1 (Homo sapiens, UniProt Q9GZU7); test: CTDSP1 inhibitors, concentration-response, biochemical, absorbance readout, ultra-high-throughput screen actives (AID 540297); assay type: functional
T2 sequence (Q9GZU7 whole entry): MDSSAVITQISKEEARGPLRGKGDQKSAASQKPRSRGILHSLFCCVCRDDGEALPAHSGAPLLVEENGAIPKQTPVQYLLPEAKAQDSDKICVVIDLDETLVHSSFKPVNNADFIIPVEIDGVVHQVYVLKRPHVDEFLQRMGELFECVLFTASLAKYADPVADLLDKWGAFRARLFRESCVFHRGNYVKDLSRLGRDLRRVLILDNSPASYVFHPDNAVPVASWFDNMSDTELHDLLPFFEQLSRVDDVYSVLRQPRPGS

Estrogen receptor beta [3] = target: T1, Estrogen receptor beta; test: blockers of SRC-3 recruitment to ERβ – biochemical, ELISA, streptavidin-HRP readout, orthogonal assay, confirmation (AID 1060)
[4] = target: Epstein-Barr nuclear antigen 1 (Epstein-Barr virus (strain B95-8) (HHV-4) (Human herpesvirus 4), UniProt P03211); test: inhibition of EBV nuclear antigen 1 DNA binding – biochemical, fluorescence polarization, 1536-well, dose response (AID 2381); parameters: species or system human gammaherpesvirus 4;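 further: fluorescence polarization of a Cy5 DNA probe bound by EBNA-1 protein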
Chain of Epstein-Barr nuclear antigen 1 (P03211 whole entry): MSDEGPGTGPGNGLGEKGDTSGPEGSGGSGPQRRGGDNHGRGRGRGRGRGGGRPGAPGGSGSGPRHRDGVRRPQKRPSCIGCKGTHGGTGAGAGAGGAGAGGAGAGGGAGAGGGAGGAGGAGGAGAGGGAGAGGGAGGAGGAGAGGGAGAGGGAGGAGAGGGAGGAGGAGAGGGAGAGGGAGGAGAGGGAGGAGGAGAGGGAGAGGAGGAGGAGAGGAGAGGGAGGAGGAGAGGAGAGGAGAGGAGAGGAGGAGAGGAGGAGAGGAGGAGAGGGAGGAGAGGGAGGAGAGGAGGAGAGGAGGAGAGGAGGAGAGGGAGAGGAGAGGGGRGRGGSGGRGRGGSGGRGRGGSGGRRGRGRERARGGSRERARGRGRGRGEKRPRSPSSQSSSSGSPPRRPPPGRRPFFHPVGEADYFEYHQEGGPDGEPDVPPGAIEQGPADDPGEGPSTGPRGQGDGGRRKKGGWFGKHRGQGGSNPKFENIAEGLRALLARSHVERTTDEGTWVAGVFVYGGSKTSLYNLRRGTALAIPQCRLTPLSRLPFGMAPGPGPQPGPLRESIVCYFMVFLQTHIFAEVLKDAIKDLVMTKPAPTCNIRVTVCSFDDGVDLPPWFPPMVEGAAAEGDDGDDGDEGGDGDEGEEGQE

[5] = target: Lytic switch protein BZLF1 (Epstein-Barr virus (strain B95-8) (HHV-4) (Human herpesvirus 4), UniProt P03206); test: inhibition of BZLF1 ZTA DNA binding – biochemical, fluorescence polarization, Epstein-Barr virus, 1536-well, counter-screen for EBNA-1 inhibitor project, dose response (AID 2377); parameters: species or system human gammaherpesvirus 4;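 further: fluorescence polarization of Cy5-labelled ZRE DNA probe bound by purified Zta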
Chain of Lytic switch protein BZLF1 (P03206 whole entry): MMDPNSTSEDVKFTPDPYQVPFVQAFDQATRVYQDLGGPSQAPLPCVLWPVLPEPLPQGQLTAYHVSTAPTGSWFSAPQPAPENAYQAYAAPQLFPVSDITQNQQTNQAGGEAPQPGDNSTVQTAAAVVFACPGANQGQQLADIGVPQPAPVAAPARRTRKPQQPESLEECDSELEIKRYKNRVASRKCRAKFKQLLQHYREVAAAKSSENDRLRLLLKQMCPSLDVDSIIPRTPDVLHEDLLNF

[6] = Luminescence Cell-Based Dose Confirmation HTS to Identify Inhibitors of Polyadenylation.; assay type: functional
INS1 = test: INS-1E survival protection against cytokine death – cell-based, luminescence, retest, dose response (AID 449756); assay type: functional; details: Rattus norvegicus;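 further: cell death triggered by IL-1 beta plus TNF-alpha plus IFN-gamma mixture; protective hits raise ATP signal compared with cytokine alone wells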
[7] = NIH3T3 cell viability loss – ATP luminescence, mouse fibroblasts, counter-screen, dose response (AID 2010); assay type: functional, cell-based;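 further: cells exposed to compound for about 90 hours before reading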
[8] = blockers of HIV-1 ZM109 envelope-driven cell-cell fusion – HeLa effector, CEM target cells, luciferase, cherry-pick, dose response (AID 652058); assay type: functional, cell-based;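 further: luciferase signal from HIV-1 Env mediated cell-cell fusion of effector and target cells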
[9] = Luminescence-based dose response cell-based high throughput screening assay for cytotoxic compounds using the IEC-6 intestinal epithelial cell line. [Related pubchem assays: 1858 (Summary AID.), 1825 (Counterscreen.), 1907 (Confirmation screen.)]; assay type: functional
[10] = HIV-1 AD8 envelope cell-cell fusion blockers – cherry-pick, dose response (AID 652062); assay type: functional, cell-based;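 further: luciferase signal from cell-cell fusion driven by HIV-1 clade B AD8 Env; potency is for inhibitors of fusion seen as a drop in luminescence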
[11] = off-target signal loss in HeLa-CEM21 co-culture – HeLa F-luc CTL cells, cherry-picked, counter-screen for HIV-1 Env fusion inhibitor project, dose response (AID 652040); assay type: functional, cell-based;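 further: potency for signal decrease marking cytotoxic or nonspecific inhibition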
[12] = blockers of HIV-1 envelope-mediated cell-cell fusion – cherry-pick, dose response (AID 652057); assay type: functional, cell-based
[13] = viability loss in CEM21 cells – cell-based, CellTiter-Glo luminescence, cherry-picked, cytotoxicity control for viral fusion inhibitor project, dose response (AID 652042); assay type: functional;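 further: potency for signal decrease meaning cytotoxicity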
[14] = Trypanosoma cruzi growth suppression in host cells – NIH3T3 host cells, beta-gal luminescence, confirmation (AID 2044); assay type: functional, cell-based;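 further: intracellular parasites grown in NIH/3T3 mouse fibroblasts as host cells; luminescent beta-galactosidase reporter signal from transgenic T. cruzi replicating inside host cells; inhibitors lower the luminescence signal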
[15] = target: T3, COUP transcription factor 2 (Homo sapiens, UniProt P24468); test: Luminescence-based cell-based high throughput dose response assay to identify inhibitors of COUP-TFII (NR2F2).; assay type: functional;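 further: HEK293 cells transiently cotransfected with COUP-TFII expression vector and reporter; luciferase reporter luminescence driven by COUP-TFII from the pX2-168 reporter plasmid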
T3 sequence (P24468 whole entry): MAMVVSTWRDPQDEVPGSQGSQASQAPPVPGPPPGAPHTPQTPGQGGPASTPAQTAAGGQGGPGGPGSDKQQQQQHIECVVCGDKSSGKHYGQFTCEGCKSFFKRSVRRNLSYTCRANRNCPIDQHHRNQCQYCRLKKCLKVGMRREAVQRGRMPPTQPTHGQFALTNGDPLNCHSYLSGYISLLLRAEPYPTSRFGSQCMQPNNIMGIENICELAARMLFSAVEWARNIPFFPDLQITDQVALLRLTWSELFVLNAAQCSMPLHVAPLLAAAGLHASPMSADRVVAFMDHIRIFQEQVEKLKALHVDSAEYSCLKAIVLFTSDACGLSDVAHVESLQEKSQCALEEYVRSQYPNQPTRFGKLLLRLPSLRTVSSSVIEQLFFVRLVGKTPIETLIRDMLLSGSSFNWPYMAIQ

BJ [16] = test: BJ-TERT fibroblast viability loss – cell-based, RAS-independent, luminescence, dose response (AID 1933); assay type: functional; details: Homo sapiens
[17] = test system: Streptococcus sp. 'group A'; test: Streptococcus pyogenes SK(-)GAS viability under kanamycin – luminescence, BacTiterGlo, confirmation, counter-screen for streptokinase expression inhibitor project, dose response (AID 1900); assay type: functional, organism-based
[18] = DRD fibroblast viability loss – cell-based, non-viral oncogenic, luminescence, dose response (AID 1934); assay type: functional; details: Homo sapiens
cells [19] = assay type: functional, cell-based
Beta-galactosidase [20] = target: T4, Beta-galactosidase (Escherichia coli, UniProt Q8VNN2); assay type: functional
T4 sequence (Q8VNN2 whole entry): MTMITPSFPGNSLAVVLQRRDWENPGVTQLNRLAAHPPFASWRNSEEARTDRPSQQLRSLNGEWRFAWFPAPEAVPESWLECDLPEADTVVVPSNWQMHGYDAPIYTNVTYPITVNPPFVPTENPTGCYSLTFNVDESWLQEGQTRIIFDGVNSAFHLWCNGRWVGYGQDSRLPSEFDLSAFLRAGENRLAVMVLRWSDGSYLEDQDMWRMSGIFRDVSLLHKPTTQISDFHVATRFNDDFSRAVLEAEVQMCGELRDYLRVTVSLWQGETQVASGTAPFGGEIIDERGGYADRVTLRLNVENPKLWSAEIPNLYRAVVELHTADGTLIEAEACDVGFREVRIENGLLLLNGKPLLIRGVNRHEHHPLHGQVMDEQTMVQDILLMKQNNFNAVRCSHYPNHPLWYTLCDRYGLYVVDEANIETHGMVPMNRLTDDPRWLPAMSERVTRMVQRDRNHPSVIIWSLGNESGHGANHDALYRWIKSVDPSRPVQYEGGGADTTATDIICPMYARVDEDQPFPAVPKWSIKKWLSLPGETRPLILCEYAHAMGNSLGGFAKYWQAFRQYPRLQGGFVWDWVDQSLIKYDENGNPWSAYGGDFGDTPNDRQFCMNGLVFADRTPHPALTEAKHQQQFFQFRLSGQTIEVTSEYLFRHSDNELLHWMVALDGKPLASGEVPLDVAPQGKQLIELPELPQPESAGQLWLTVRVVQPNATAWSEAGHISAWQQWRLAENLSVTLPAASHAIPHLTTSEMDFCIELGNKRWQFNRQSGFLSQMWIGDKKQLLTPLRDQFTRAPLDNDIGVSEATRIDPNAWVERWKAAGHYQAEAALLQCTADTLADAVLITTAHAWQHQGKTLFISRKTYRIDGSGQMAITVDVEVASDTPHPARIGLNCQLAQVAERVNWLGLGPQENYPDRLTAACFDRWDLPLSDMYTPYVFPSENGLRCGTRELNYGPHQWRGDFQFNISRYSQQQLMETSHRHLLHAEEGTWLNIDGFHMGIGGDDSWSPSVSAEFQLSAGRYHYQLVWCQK

[21] = target: T5, Kappa-type opioid receptor (Homo sapiens, UniProt P41145); assay type: functional
T5 sequence (P41145 whole entry): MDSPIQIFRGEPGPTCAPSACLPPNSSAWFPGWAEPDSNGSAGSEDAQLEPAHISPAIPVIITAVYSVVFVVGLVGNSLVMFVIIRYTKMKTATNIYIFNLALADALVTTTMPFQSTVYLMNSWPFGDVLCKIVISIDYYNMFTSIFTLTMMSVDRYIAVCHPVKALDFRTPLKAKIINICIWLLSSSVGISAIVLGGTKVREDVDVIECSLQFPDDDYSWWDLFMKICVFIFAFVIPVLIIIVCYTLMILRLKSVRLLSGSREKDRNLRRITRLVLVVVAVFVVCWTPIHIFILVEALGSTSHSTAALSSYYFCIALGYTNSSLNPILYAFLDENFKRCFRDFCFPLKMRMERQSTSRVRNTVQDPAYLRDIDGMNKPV

[22] = HEK-293T viability loss after treatment – luminescence, T-cell screen hits, cytotoxicity control for TCR NF-kB inhibitor project, dose response (AID 489026); assay type: functional, cell-based;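 further: cells exposed to compound about 14 hours before the viability readout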
[23] = Vero E6 cell cytotoxicity, dose response, cytotoxicity control for non-replicating M. tuberculosis project, secondary assay (AID 492998); assay type: functional, VeroE6; details: Vero C1008
Streptococcus = test: GAS UMAA2166 growth inhibition – luminescence, BacTiterGlo, counter-screen for streptokinase expression inhibitor project, dose response (AID 1915); assay type: functional, organism-based;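 further: potency for reduction of bacterial viability or growth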
[24] = bead-based luminescence quenchers, dual-tagged ARNT – biochemical, AlphaScreen, cherry-pick, artefact control for ARNT-TACC3 interaction inhibitor project, dose response (AID 651705); assay type: functional;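 further: AlphaScreen bead proximity signal that flags compounds interfering with the detection technology; potency reflects signal decrease which marks the compound as an assay artifact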
[25] = THP-1 cell cytotoxicity, dose response, cytotoxicity control for non-replicating M. tuberculosis project (AID 489025); assay type: functional
[26] = target: T5, Kappa-type opioid receptor; assay type: functional; remark: listed apart in the source
Streptokinase A = target: T6, Streptokinase A (Streptococcus pyogenes serotype M1, UniProt P10520); test: viability-normalized secreted streptokinase activity reduction – plasminogen activation absorbance, OD405, dose response (AID 1914); assay type: functional, Streptococcus pyogenes M1 GAS;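 further: secreted streptokinase activity via plasminogen activation per viability signal from cell pellet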
T6 sequence (P10520 whole entry): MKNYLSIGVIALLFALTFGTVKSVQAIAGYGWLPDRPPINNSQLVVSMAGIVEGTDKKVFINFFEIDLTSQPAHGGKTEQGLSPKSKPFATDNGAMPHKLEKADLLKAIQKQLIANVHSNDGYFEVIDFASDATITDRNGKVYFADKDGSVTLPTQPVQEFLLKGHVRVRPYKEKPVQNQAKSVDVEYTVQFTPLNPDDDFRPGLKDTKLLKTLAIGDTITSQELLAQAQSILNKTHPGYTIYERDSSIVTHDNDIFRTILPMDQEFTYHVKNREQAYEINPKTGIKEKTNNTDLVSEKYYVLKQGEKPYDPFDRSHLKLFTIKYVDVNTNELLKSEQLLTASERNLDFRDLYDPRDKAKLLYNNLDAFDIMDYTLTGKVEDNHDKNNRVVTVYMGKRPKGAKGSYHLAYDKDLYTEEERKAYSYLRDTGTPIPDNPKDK

cells [27] = assay type: functional
BJ [28] = test: BJ-TERT-LT-ST fibroblast viability loss – cell-based, RAS-independent, luminescence, dose response (AID 1935); assay type: functional; details: Homo sapiens;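 further: BJ fibroblasts immortalized with TERT plus LT and ST oncogenes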
[29] = HepG2 cell cytotoxicity, dose response, cytotoxicity control for non-replicating M. tuberculosis project (AID 489018); assay type: functional; details: Mycobacterium tuberculosis
BJ [30] = test: growth inhibition of engineered Ras-driven BJ cells – cell-based, alamar blue fluorescence, cherrypicked samples, dose response (AID 2631); assay type: functional; details: Homo sapiens;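 further: confirmatory dose-response assay in RAS-dependent BJ fibroblasts engineered with TERT, LT and ST, with cytotoxicity read by fluorescence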
cells [31] = assay type: functional, cell-based; remark: listed apart in the source
Beta-galactosidase [32] = target: T4, Beta-galactosidase; test: PubChem AID 485352; assay type: functional
Vero = test: cells; assay type: functional; details: Chlorocebus sabaeus
[33] = target: T7, Heat shock factor protein 1 (Mus musculus, UniProt P38532); test: enhancement of HSF1-driven luciferase signal – cell-based, NIH3T3, luminescence, dose retest, confirmation (AID 435004); assay type: functional;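 further: stress induced by proteasome inhibitor MG132 added 30 min after compound; luciferase reporter driven by HSF1 response element in NIH3T3 cells; actives raise luminescence as potentiators of the MG132 stress response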
T7 sequence (P38532 whole entry): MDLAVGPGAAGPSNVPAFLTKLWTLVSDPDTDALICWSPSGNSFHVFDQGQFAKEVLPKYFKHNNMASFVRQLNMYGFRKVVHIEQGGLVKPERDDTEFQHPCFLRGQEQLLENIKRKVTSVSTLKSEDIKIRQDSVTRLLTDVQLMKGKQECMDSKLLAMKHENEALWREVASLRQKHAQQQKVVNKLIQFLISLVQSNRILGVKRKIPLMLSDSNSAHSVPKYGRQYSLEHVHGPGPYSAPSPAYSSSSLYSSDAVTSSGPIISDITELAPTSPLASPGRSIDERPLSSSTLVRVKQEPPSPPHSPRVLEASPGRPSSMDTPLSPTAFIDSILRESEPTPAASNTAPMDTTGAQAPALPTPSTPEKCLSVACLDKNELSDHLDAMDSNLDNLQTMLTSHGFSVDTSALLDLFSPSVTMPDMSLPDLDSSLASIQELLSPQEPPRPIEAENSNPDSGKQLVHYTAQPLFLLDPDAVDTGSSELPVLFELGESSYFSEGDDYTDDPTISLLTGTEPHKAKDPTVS

[34] = target: T8, Type-1 angiotensin II receptor (Homo sapiens, UniProt P30556); test: antagonism of angiotensin II type 1 receptor – cell-based, uHTS hits, selectivity assay for APJ receptor antagonist project, dose response (AID 463214); assay type: functional;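 further: antagonist potency against angiotensin II stimulated AT1 response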
T8 sequence (P30556 whole entry): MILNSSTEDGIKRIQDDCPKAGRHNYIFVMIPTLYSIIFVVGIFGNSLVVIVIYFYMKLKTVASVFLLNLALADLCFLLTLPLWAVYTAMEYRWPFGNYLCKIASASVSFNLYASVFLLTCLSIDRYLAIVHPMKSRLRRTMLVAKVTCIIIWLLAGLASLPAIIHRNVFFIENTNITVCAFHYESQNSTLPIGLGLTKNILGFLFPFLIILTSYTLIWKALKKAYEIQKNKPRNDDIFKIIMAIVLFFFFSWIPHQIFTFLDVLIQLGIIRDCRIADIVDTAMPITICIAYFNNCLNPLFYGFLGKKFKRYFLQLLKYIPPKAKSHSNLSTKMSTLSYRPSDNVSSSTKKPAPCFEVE

BJ [35] = test: cells; assay type: functional, cell-based; details: Homo sapiens

T1 sequence (Q92731 whole entry, the tested form may be a part): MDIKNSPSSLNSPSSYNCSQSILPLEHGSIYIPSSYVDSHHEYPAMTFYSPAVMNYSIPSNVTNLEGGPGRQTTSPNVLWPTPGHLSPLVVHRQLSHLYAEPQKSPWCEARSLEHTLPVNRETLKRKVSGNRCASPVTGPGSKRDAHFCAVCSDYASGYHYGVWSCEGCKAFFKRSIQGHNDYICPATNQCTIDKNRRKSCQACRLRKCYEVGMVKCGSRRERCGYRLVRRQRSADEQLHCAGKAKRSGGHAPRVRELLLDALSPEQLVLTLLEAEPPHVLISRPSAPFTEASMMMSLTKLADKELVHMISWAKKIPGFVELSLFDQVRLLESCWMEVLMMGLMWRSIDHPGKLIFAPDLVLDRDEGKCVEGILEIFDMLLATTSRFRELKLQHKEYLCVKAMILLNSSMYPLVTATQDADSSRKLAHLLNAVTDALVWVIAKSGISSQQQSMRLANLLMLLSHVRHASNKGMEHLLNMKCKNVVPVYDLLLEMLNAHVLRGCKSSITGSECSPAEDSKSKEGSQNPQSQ

With CCOC(=O)C1CCCN(C(=O)c2ccc(CS(=O)(=O)c3ccc(C)cc3)o2)C1 (stereo not drawn) the IC50 (Estrogen receptor beta [1]) was 13.7 µM (active), the IC50 [2] was 7.41 µM (active) and the IC50 (Estrogen receptor beta [3]) was < 0.023 µM (not active).

In the case of Cc1ccc(C(=O)Nc2nc3ccc(S(C)(=O)=O)cc3s2)cc1C, the IC50 [4] is reported as 4.48 µM (active) and the IC50 [5] is reported as > 111 µM (not active).

In the case of Cc1nc2ccc(NC(=O)Cc3ccc4c(c3)OCCO4)cc2s1, the EC50 [6] is reported as > 120 µM (not active).

With Cc1cc(NC(=O)COC(=O)c2oc3c(ccc4ccccc43)c2C)no1 the IC50 [4] was 9.17 µM (active) and the IC50 [5] was > 111 µM (not active).

With CC(C)(C)c1ccc(C2CC2C(=O)N/N=C\c2ccc[nH]2)cc1 (stereo not drawn) the AC50 (INS1) was 0.854 µM (active), the EC50 [7] was 3.25 µM (active) and the AC50 [8] was 1.5 µM (active). For the same compound, the IC50 [9] was 1.44 µM (active), the AC50 [10] was 1.97 µM (active) and the AC50 [11] was 2.75 µM (active). The AC50 [12] was 3.52 µM (active), the AC50 [13] was 4.53 µM (active) and the EC50 [14] was 0.389 µM (active). For the same compound, the IC50 [15] was 2.66 µM (active).

In the case of O=C(N/N=C(\c1ccccc1)c1cccnc1)c1cccc(F)c1, the EC50 (BJ [16]) is reported as 12.4 µM (active), the EC50 [17] is reported as 5.5 µM (active) and the EC50 [18] is reported as 5.35 µM (inconclusive). The AC50 (INS1) was 0.519 µM (active), the EC50 (cells [19]) was 28.7 µM (active) and the EC50 (Beta-galactosidase [20]) was > 31.5 µM (inactive). For the same compound, the IC50 [21] was > 32 µM, the IC50 [22] was > 80 µM (inactive) and the CC50 [23] was 1.18 µM (active). For the same compound, the EC50 (Streptococcus) was 11 µM (active), the AC50 [24] was 120 µM (active) and the CC50 [25] was 0.726 µM (active). The IC50 [26] was 13.1 µM (active), the IC50 [9] was 0.747 µM (active) and the EC50 (Streptokinase A) was > 150 µM (not active). The IC50 (cells [27]) was 1.73 µM (active), the EC50 (BJ [28]) was 4.43 µM (active) and the CC50 [29] was 9.37 µM (active). For the same compound, the EC50 (BJ [30]) was 0.939 µM (active), the EC50 (cells [31]) was > 350 µM (not active) and the EC50 (Beta-galactosidase [32]) was > 40 µM (inactive). The CC50 (Vero) was 1.7 µM (active), the EC50 [33] was 21.5 µM (active) and the IC50 [34] was 10.8 µM (active). For the same compound, the EC50 (BJ [35]) was 5.95 µM (active).
